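48-hour exposure; five concentrations; linearly interpolated endpoints. TGI marks complete inhibition of growth.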
How the values were obtained:
Assay in all cases: NCI tumour cell line growth inhibition, 48 h
[1] = test system: SF-268 CNS
[2] = test system: HCT-116 colon
[3] = test system: COLO 205 colon
[4] = test system: TK-10 renal
[5] = test system: HOP-62 NSCLC
[6] = test system: 786-0 renal
[7] = test system: XF 498 CNS
[8] = test system: SR leukemia
[9] = test system: M19-MEL melanoma
[10] = test system: HOP-92 NSCLC
[11] = test system: SK-MEL-2 melanoma
[12] = test system: EKVX NSCLC
[13] = test system: DLD-1 colon
[14] = test system: SNB-75 CNS
[15] = test system: HCT-15 colon
[16] = test system: NCI-H460 lung
[17] = test system: UACC-62 melanoma
[18] = test system: OVCAR-5 ovarian
[19] = test system: MOLT-4 leukemia
[20] = test system: SW-620 colon
[21] = test system: A549 NSCLC
[22] = test system: SN12C renal
[23] = test system: SNB-19 CNS
[24] = test system: RXF 393 renal
[25] = test system: UACC-257 melanoma
[26] = test system: OVCAR-8 ovarian
[27] = test system: OVCAR-3 ovarian
[28] = test system: ACHN renal
[29] = test system: HL-60(TB) leukemia
[30] = test system: DMS 114 small cell lung
[31] = test system: SK-MEL-5 melanoma
[32] = test system: U251 CNS
[33] = test system: HOP-18 NSCLC
[34] = test system: KM20L2 colon
[35] = test system: K-562 leukemia
[36] = test system: OVCAR-4 ovarian
[37] = test system: SNB-78 CNS
[38] = test system: NCI-H23 lung
[39] = test system: NCI-H226 lung
[40] = test system: RPMI-8226 leukemia
[41] = test system: KM12 colon
[42] = test system: CAKI-1 renal
[43] = test system: MALME-3M melanoma
[44] = test system: SK-MEL-28 melanoma
[45] = test system: M14 melanoma
[46] = test system: NCI-H522 lung
[47] = test system: A498 renal
[48] = test system: IGROV1 ovarian
[49] = test system: UO-31 renal
[50] = test system: HT29 colon
[51] = test system: LXFL 529 NSCLC
[52] = test system: LOX IMVI melanoma
[53] = test system: DMS 273 small cell lung
[54] = test system: CCRF-CEM leukemia
[55] = test system: SF-295 CNS
[56] = test system: RXF-631 renal
[57] = test system: SK-OV-3 ovarian
[58] = test system: HCC-2998 colon
[59] = test system: SF-539 CNS

N#C/C(=C\c1c(Cl)cccc1Cl)c1ccccc1
TGI [1]: > 100 µM | TGI [2]: > 100 µM | TGI [3]: 7.16 µM | TGI [4]: > 100 µM | TGI [5]: > 31.4 µM | TGI [6]: > 56.6 µM | TGI [7]: 33.4 µM | TGI [8]: 6.04 µM | TGI [9]: > 100 µM | TGI [10]: 41.1 µM | TGI [11]: 39.3 µM | TGI [12]: > 100 µM | TGI [13]: > 100 µM | TGI [14]: 7.76 µM | TGI [15]: > 100 µM | TGI [16]: > 58.5 µM | TGI [17]: > 31.3 µM | TGI [18]: > 100 µM | TGI [19]: > 66.5 µM | TGI [20]: > 100 µM | TGI [21]: > 100 µM | TGI [22]: > 69.5 µM | TGI [23]: 78.5 µM | TGI [24]: 25.7 µM | TGI [25]: > 100 µM | TGI [26]: > 100 µM | TGI [27]: 19.9 µM | TGI [28]: > 100 µM | TGI [29]: 15.9 µM | TGI [30]: > 39.5 µM | TGI [31]: > 46.8 µM | TGI [32]: > 90.1 µM | TGI [33]: > 100 µM | TGI [34]: 21.8 µM | TGI [35]: > 100 µM | TGI [36]: > 96.3 µM | TGI [37]: > 66.8 µM | TGI [38]: > 87.9 µM | TGI [39]: > 48.9 µM | TGI [40]: > 100 µM | TGI [41]: > 100 µM | TGI [42]: > 100 µM | TGI [43]: 56 µM | TGI [44]: > 100 µM | TGI [45]: > 76.3 µM | TGI [46]: 40.9 µM | TGI [47]: 25.4 µM | TGI [48]: > 100 µM | TGI [49]: > 100 µM | TGI [50]: > 59.5 µM | TGI [51]: > 100 µM | TGI [52]: > 68.5 µM | TGI [53]: 11.8 µM | TGI [54]: 11.9 µM | TGI [55]: 65.5 µM | TGI [56]: > 100 µM | TGI [57]: > 65.9 µM | TGI [58]: > 100 µM | TGI [59]: 9.53 µM

NC(=O)n1ncc(Cl)c(Cl)c1=O
TGI [1]: > 100 µM | TGI [2]: > 100 µM | TGI [3]: > 100 µM | TGI [4]: > 100 µM | TGI [5]: > 100 µM | TGI [6]: > 100 µM | TGI [7]: > 100 µM | TGI [9]: > 100 µM | TGI [10]: > 100 µM | TGI [11]: > 100 µM | TGI [12]: > 100 µM | TGI [13]: > 100 µM | TGI [14]: > 100 µM | TGI [15]: > 100 µM | TGI [16]: > 100 µM | TGI [17]: > 100 µM | TGI [18]: > 100 µM | TGI [20]: > 100 µM | TGI [21]: > 100 µM | TGI [22]: > 100 µM | TGI [23]: > 100 µM | TGI [25]: > 100 µM | TGI [26]: > 100 µM | TGI [27]: > 100 µM | TGI [28]: > 100 µM | TGI [29]: > 100 µM | TGI [30]: > 100 µM | TGI [31]: > 100 µM | TGI [32]: > 100 µM | TGI [33]: > 100 µM | TGI [34]: > 100 µM | TGI [35]: > 100 µM | TGI [36]: > 100 µM | TGI [37]: > 100 µM | TGI [38]: > 100 µM | TGI [39]: > 100 µM | TGI [41]: > 100 µM | TGI [42]: > 100 µM | TGI [43]: > 100 µM | TGI [44]: > 100 µM | TGI [45]: > 100 µM | TGI [46]: > 100 µM | TGI [47]: > 100 µM | TGI [48]: > 100 µM | TGI [49]: > 100 µM | TGI [50]: > 100 µM | TGI [51]: > 100 µM | TGI [53]: > 100 µM | TGI [54]: > 100 µM | TGI [55]: > 100 µM | TGI [56]: > 100 µM | TGI [57]: > 100 µM | TGI [59]: > 100 µM

O=[N+]([O-])c1ccc(N=Nc2c(O)[nH]c3ccc(Br)cc23)cc1
TGI [1]: 34.8 µM | TGI [2]: 80.1 µM | TGI [3]: > 68.7 µM | TGI [4]: 36 µM | TGI [5]: 33.8 µM | TGI [6]: 25.2 µM | TGI [7]: 53.7 µM | TGI [8]: > 53.9 µM | TGI [9]: 34.7 µM | TGI [10]: 26.5 µM | TGI [11]: 99.2 µM | TGI [12]: 58.9 µM | TGI [13]: > 46.8 µM | TGI [14]: > 48.1 µM | TGI [15]: > 74.3 µM | TGI [16]: > 46.5 µM | TGI [17]: > 51.2 µM | TGI [19]: > 51.7 µM | TGI [20]: > 100 µM | TGI [21]: 44.9 µM | TGI [22]: > 31.6 µM | TGI [23]: 36.6 µM | TGI [24]: 35.6 µM | TGI [25]: 43.4 µM | TGI [26]: 28.3 µM | TGI [27]: 45.9 µM | TGI [28]: 42.7 µM | TGI [29]: 25.2 µM | TGI [30]: 47.7 µM | TGI [31]: > 68 µM | TGI [32]: 38.2 µM | TGI [33]: 40.6 µM | TGI [34]: > 100 µM | TGI [35]: > 43 µM | TGI [36]: 33.4 µM | TGI [37]: 42.3 µM | TGI [38]: > 51.3 µM | TGI [39]: 37.2 µM | TGI [40]: 45.6 µM | TGI [41]: > 100 µM | TGI [42]: > 58.4 µM | TGI [43]: 58 µM | TGI [44]: 32.9 µM | TGI [45]: > 52.8 µM | TGI [46]: > 87.7 µM | TGI [47]: 49.1 µM | TGI [48]: > 53.2 µM | TGI [49]: > 73.5 µM | TGI [50]: > 100 µM | TGI [51]: > 68.7 µM | TGI [52]: 48.8 µM | TGI [53]: 24 µM | TGI [54]: > 49.1 µM | TGI [55]: 25 µM | TGI [56]: 33 µM | TGI [57]: 45.6 µM | TGI [58]: > 100 µM | TGI [59]: 32.1 µM
